US20170190671A1, “BIS(ARYL)CATECHOL DERIVATIVES AS HERBICIDES” (E I DU PONT DE NEMOURS AND COMPANY, priority 2014, published 2017)

Assays:
[1] = system: ragweed (common ragweed, Ambrosia elatior); assay: Test C postemergence; format: in vivo; settings: Ambrosia artemisiifolia, post-emergence, 336 h, Postemergence, scale 0 to 100, read-out: Plant response rating, Ragweed
How it was run: (§1)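 Greenhouse test; preemergence to seeds in loam/sand soil, or postemergence spray to 2-18 cm, 1- to 4-leaf plants in peat/vermiculite medium; compound in non-phytotoxic solvent plus surfactant. Visual rating vs controls at 13-15 d, 0 = no effect, 100 = complete control.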

[2] = system: corn (Zea mays); assay: Test C postemergence; format: in vivo; settings: Zea mays, post-emergence, 336 h, Postemergence, scale 0 to 100
How it was run: as §1

[3] = system: soybean (Glycine max); assay: Test C postemergence; format: in vivo; settings: Glycine max, post-emergence, Postemergence, scale 0 to 100, read-out: Plant response rating, Soybean
How it was run: as §1

[4] = system: waterhemp (common waterhemp, Amaranthus rudis); assay: Test C postemergence; format: in vivo; settings: Amaranthus tuberculatus, post-emergence, Postemergence, scale 0 to 100, read-out: Plant response rating, Waterhemp
How it was run: as §1

[5] = system: lambsquarters (Chenopodium album); assay: Test C postemergence; format: in vivo; settings: Chenopodium album, post-emergence, 336 h, Postemergence, scale 0 to 100, read-out: Plant response rating, Lambsquarters
How it was run: as §1

[6] = system: galium (catchweed bedstraw, Galium aparine); assay: Test C postemergence; format: in vivo; settings: Galium, post-emergence, 336 h, Postemergence, scale 0 to 100, read-out: Plant response rating, Galium
How it was run: as §1

[7] = system: johnsongrass (Sorghum halepense); assay: Test C preemergence; format: in vivo; settings: Sorghum halepense, pre-emergence, 336 h, scale 0 to 100, read-out: Plant response rating, Johnsongrass
How it was run: as §1

[8] = system: blackgrass (Alopecurus myosuroides); assay: Test C preemergence; format: in vivo; settings: Alopecurus myosuroides, pre-emergence, 336 h, scale 0 to 100, read-out: Plant response rating, Blackgrass
How it was run: as §1

[9] = system: barnyardgrass (Echinochloa crus-galli); assay: Test C preemergence; format: in vivo; settings: Echinochloa crus-galli, pre-emergence, read-out: Plant response rating, Barnyardgrass
How it was run: as §1

[10] = system: oilseed rape (Brassica napus); assay: Test C preemergence; format: in vivo; settings: Brassica napus, pre-emergence, scale 0 to 100, read-out: Plant response rating, Oilseed Rape
How it was run: as §1

[11] = system: yellow nutsedge (Cyperus esculentus); assay: Test C preemergence; format: in vivo; settings: Cyperus, pre-emergence, 336 h, scale 0 to 100, read-out: Plant response rating, Nutsedge, Yellow
How it was run: as §1

[12] = system: corn (Zea mays); assay: Test C preemergence; format: in vivo; settings: Zea mays, pre-emergence, 336 h, scale 0 to 100
How it was run: as §1

[13] = system: Italian ryegrass (Lolium multiflorum); assay: Test C preemergence; format: in vivo; settings: Lolium multiflorum, pre-emergence, 336 h, scale 0 to 100, read-out: Plant response rating, Ryegrass, Italian
How it was run: as §1

[14] = system: soybean (Glycine max); assay: Test C preemergence; format: in vivo; settings: Glycine max, pre-emergence, scale 0 to 100, read-out: Plant response rating, Soybean
How it was run: as §1

[15] = system: waterhemp (common waterhemp, Amaranthus rudis); assay: Test C preemergence; format: in vivo; settings: Amaranthus tuberculatus, pre-emergence, scale 0 to 100, read-out: Plant response rating, Waterhemp
How it was run: as §1

[16] = system: winter wheat (Triticum aestivum); assay: Test C preemergence; format: in vivo; settings: Triticum aestivum, pre-emergence, 336 h, scale 0 to 100, read-out: Plant response rating, Wheat
How it was run: as §1

[17] = system: velvetleaf (Abutilon theophrasti); assay: Test C preemergence; format: in vivo; settings: Abutilon theophrasti, pre-emergence, scale 0 to 100, read-out: Plant response rating, Velvetleaf
How it was run: as §1

[18] = system: large (Lg) crabgrass (Digitaria sanguinalis); assay: Test C preemergence; format: in vivo; settings: Digitaria sanguinalis, pre-emergence, 336 h, scale 0 to 100, read-out: Plant response rating, Crabgrass, Large
How it was run: as §1

[19] = system: lambsquarters (Chenopodium album); assay: Test C preemergence; format: in vivo; settings: Chenopodium album, pre-emergence, 336 h, scale 0 to 100, read-out: Plant response rating, Lambsquarters
How it was run: as §1

[20] = system: pigweed (Amaranthus retroflexus); assay: Test C preemergence; format: in vivo; settings: Amaranthus retroflexus, pre-emergence, 336 h, scale 0 to 100, read-out: Plant response rating, Pigweed
How it was run: as §1

[21] = system: morningglory (Ipomoea coccinea); assay: Test C preemergence; format: in vivo; settings: Ipomoea, pre-emergence, 336 h, scale 0 to 100, read-out: Plant response rating, Morningglory
How it was run: as §1

[22] = system: giant foxtail (Setaria faberii); assay: Test C preemergence; format: in vivo; settings: Setaria faberi, pre-emergence, 336 h, scale 0 to 100, read-out: Plant response rating, Foxtail, Giant
How it was run: as §1

Fc1cnc(Oc2c(F)ccc(F)c2Oc2ncc(F)cn2)nc1 [Compound 29, 2,2′-[(3,6-difluoro-1,2-phenylene)bis(oxy)]bis[5-fluoropyrimidine]]
60%: pest or weed control at 16 g/ha ([8]; Preemergence, 16 g ai/ha) | pest or weed control at 125 g/ha ([13]; 125 g ai/ha, preemergence) | plant injury at 125 g/ha ([16]; 125 g ai/ha, preemergence)
55%: pest or weed control at 16 g/ha ([7]; Preemergence, 16 g ai/ha) | pest or weed control at 16 g/ha ([21]; Preemergence, 16 g ai/ha)
25%: pest or weed control at 16 g/ha ([9]; Preemergence, 16 g ai/ha, scale 0 to 100 (0 no effect, 100 complete control)) | Corn plant response rating (crop injury, 0 = no effect, 100 = complete kill) at 62 g/ha ([12]; 62 g ai/ha, preemergence)
35%: plant injury at 62 g/ha ([16]; 62 g ai/ha, preemergence)
158 to 161 °C: melting point
0%: Corn plant response rating (crop injury, 0 = no effect, 100 = complete kill) at 16 g/ha ([2]; 16 g ai/ha) | Corn plant response rating (crop injury, 0 = no effect, 100 = complete kill) at 31 g/ha ([2]; 31 g ai/ha) | pest or weed control at 31 g/ha ([11]; 31 g ai/ha, preemergence) | pest or weed control at 62 g/ha ([11]; 62 g ai/ha, preemergence) | pest or weed control at 16 g/ha ([11]; Preemergence, 16 g ai/ha) | Corn plant response rating (crop injury, 0 = no effect, 100 = complete kill) at 16 g/ha ([12]; Preemergence, 16 g ai/ha) | plant injury at 16 g/ha ([16]; Preemergence, 16 g ai/ha)
40%: pest or weed control at 125 g/ha ([11]; 125 g ai/ha, preemergence)
95%: pest or weed control at 125 g/ha ([4]; 125 g ai/ha) | plant injury at 62 g/ha ([10]; 62 g ai/ha, preemergence) | plant injury at 125 g/ha ([10]; 125 g ai/ha, preemergence) | plant injury at 16 g/ha ([10]; Preemergence, 16 g ai/ha) | pest or weed control at 31 g/ha ([18]; 31 g ai/ha, preemergence) | pest or weed control at 62 g/ha ([18]; 62 g ai/ha, preemergence) | pest or weed control at 16 g/ha ([18]; Preemergence, 16 g ai/ha)
100%: pest or weed control at 125 g/ha ([9]; 125 g ai/ha, preemergence, scale 0 to 100) | pest or weed control at 31 g/ha ([15]; 31 g ai/ha, preemergence) | pest or weed control at 62 g/ha ([15]; 62 g ai/ha, preemergence) | pest or weed control at 125 g/ha ([15]; 125 g ai/ha, preemergence) | pest or weed control at 16 g/ha ([15]; Preemergence, 16 g ai/ha) | pest or weed control at 31 g/ha ([20]; 31 g ai/ha, preemergence) | pest or weed control at 62 g/ha ([20]; 62 g ai/ha, preemergence) | pest or weed control at 125 g/ha ([20]; 125 g ai/ha, preemergence)
75%: pest or weed control at 62 g/ha ([1]; 62 g ai/ha) | plant injury at 62 g/ha ([3]; 62 g ai/ha) | pest or weed control at 16 g/ha ([5]; 16 g ai/ha) | pest or weed control at 31 g/ha ([9]; 31 g ai/ha, preemergence, scale 0 to 100) | pest or weed control at 16 g/ha ([17]; Preemergence, 16 g ai/ha) | pest or weed control at 31 g/ha ([21]; 31 g ai/ha, preemergence) | pest or weed control at 16 g/ha ([22]; Preemergence, 16 g ai/ha)
50%: pest or weed control at 62 g/ha ([13]; 62 g ai/ha, preemergence)
5%: Corn plant response rating (crop injury, 0 = no effect, 100 = complete kill) at 62 g/ha ([2]; 62 g ai/ha) | Corn plant response rating (crop injury, 0 = no effect, 100 = complete kill) at 125 g/ha ([2]; 125 g ai/ha) | plant injury at 31 g/ha ([16]; 31 g ai/ha, preemergence)
15%: Corn plant response rating (crop injury, 0 = no effect, 100 = complete kill) at 31 g/ha ([12]; 31 g ai/ha, preemergence) | pest or weed control at 31 g/ha ([13]; 31 g ai/ha, preemergence)
85%: plant injury at 125 g/ha ([3]; 125 g ai/ha) | pest or weed control at 31 g/ha ([4]; 31 g ai/ha) | pest or weed control at 62 g/ha ([5]; 62 g ai/ha) | pest or weed control at 125 g/ha ([5]; 125 g ai/ha) | pest or weed control at 16 g/ha ([6]; 16 g ai/ha) | pest or weed control at 31 g/ha ([6]; 31 g ai/ha) | pest or weed control at 125 g/ha ([7]; 125 g ai/ha, preemergence) | plant injury at 31 g/ha ([14]; 31 g ai/ha, preemergence) | pest or weed control at 31 g/ha ([19]; 31 g ai/ha, preemergence) | pest or weed control at 62 g/ha ([19]; 62 g ai/ha, preemergence) | pest or weed control at 125 g/ha ([21]; 125 g ai/ha, preemergence) | pest or weed control at 62 g/ha ([22]; 62 g ai/ha, preemergence)
70%: pest or weed control at 31 g/ha ([1]; 31 g ai/ha) | plant injury at 31 g/ha ([3]; 31 g ai/ha) | pest or weed control at 31 g/ha ([7]; 31 g ai/ha, preemergence) | plant injury at 16 g/ha ([14]; Preemergence, 16 g ai/ha)
30%: pest or weed control at 16 g/ha ([13]; Preemergence, 16 g ai/ha)
90%: pest or weed control at 62 g/ha ([4]; 62 g ai/ha) | pest or weed control at 62 g/ha ([6]; 62 g ai/ha) | pest or weed control at 31 g/ha ([8]; 31 g ai/ha, preemergence) | pest or weed control at 62 g/ha ([8]; 62 g ai/ha, preemergence) | pest or weed control at 125 g/ha ([8]; 125 g ai/ha, preemergence) | plant injury at 62 g/ha ([14]; 62 g ai/ha, preemergence) | plant injury at 125 g/ha ([14]; 125 g ai/ha, preemergence) | pest or weed control at 62 g/ha ([17]; 62 g ai/ha, preemergence) | pest or weed control at 125 g/ha ([19]; 125 g ai/ha, preemergence)
65%: Corn plant response rating (crop injury, 0 = no effect, 100 = complete kill) at 125 g/ha ([12]; 125 g ai/ha, preemergence)
80%: pest or weed control at 125 g/ha ([1]; 125 g ai/ha) | pest or weed control at 31 g/ha ([5]; 31 g ai/ha) | pest or weed control at 62 g/ha ([7]; 62 g ai/ha, preemergence) | pest or weed control at 16 g/ha ([19]; Preemergence, 16 g ai/ha) | pest or weed control at 62 g/ha ([21]; 62 g ai/ha, preemergence) | pest or weed control at 31 g/ha ([22]; 31 g ai/ha, preemergence)
98%: pest or weed control at 125 g/ha ([6]; 125 g ai/ha) | pest or weed control at 62 g/ha ([9]; 62 g ai/ha, preemergence, scale 0 to 100) | plant injury at 31 g/ha ([10]; 31 g ai/ha, preemergence) | pest or weed control at 31 g/ha ([17]; 31 g ai/ha, preemergence) | pest or weed control at 125 g/ha ([17]; 125 g ai/ha, preemergence) | pest or weed control at 125 g/ha ([18]; 125 g ai/ha, preemergence) | pest or weed control at 16 g/ha ([20]; Preemergence, 16 g ai/ha) | pest or weed control at 125 g/ha ([22]; 125 g ai/ha, preemergence)
